According to ChEMBL document CHEMBL1201862, “PubChem BioAssay data set” (2004):
Active and inactive are the calls of the source.

Legend:
[1] = molecular target: T1, Short transient receptor potential channel 4 (Mus musculus, UniProt Q9QUQ5); experiment: mouse TRPC4 channel activators, dose response, cell-based, HEK293 TRPC4/mu-opioid, Fluo-4 calcium (AID 434937); type: functional
T1 sequence (Q9QUQ5 whole entry): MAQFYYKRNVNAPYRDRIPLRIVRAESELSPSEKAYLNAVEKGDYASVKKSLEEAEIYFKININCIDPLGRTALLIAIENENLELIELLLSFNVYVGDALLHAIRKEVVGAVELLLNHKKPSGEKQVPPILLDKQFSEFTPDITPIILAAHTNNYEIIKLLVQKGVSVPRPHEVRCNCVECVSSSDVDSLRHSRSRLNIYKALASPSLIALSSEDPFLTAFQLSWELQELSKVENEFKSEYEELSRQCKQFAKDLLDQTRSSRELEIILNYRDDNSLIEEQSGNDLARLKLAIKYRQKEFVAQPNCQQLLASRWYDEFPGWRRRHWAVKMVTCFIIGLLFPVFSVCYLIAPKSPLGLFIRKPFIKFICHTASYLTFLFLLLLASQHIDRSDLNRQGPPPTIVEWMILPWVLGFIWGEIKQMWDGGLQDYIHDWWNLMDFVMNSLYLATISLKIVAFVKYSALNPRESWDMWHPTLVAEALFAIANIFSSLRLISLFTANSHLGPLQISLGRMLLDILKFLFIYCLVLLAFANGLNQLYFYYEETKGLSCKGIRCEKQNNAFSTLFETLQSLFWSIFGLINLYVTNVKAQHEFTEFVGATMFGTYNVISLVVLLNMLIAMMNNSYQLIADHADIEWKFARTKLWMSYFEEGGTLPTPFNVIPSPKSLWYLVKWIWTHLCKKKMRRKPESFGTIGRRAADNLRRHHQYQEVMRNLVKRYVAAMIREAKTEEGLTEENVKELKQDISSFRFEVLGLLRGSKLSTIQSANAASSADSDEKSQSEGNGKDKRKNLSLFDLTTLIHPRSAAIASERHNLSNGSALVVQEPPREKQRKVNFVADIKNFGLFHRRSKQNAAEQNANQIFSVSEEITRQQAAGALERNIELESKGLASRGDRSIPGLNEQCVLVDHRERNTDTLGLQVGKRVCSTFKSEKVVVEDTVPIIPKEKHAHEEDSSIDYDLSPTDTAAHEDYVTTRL

Troponin, cardiac muscle = Troponin, cardiac muscle (Homo sapiens, UniProt P19429+P45379+P63316); experiment: Fluorescence-based biochemical high throughput dose response assay for activators of the calcium sensitivity of cardiac Regulated Thin Filaments (RTF). [Related pubchem assays (depositor defined):AID493008, AID493018, AID504382, AID504383]; type: protein-complex assay
H4 = experiment: Luminescence Cell-Based Dose Response HTS to Identify Activators of 5'UTR Stem-Loop Driven Prion Protein mRNA Translation in H4 Neuroglioblastoma Cells. [Related pubchem assays: 1829 (Project Summary), 1814 (Primary HTS)]; type: functional; conditions: Homo sapiens
[2] = molecular target: T2, Heat shock factor protein 1 (Mus musculus, UniProt P38532); experiment: inhibition of MG132-induced HSE-luciferase signal, confirmation, cell-based, NIH3T3, luminescence, dose retest (AID 2382); type: functional;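 note: NIH3T3 fibroblasts with HSF1-driven luciferase reporter stressed by proteasome inhibitor MG132; luminescence from HSF1-driven luciferase expression after 8 hours of MG132 stress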
T2 sequence (P38532 whole entry): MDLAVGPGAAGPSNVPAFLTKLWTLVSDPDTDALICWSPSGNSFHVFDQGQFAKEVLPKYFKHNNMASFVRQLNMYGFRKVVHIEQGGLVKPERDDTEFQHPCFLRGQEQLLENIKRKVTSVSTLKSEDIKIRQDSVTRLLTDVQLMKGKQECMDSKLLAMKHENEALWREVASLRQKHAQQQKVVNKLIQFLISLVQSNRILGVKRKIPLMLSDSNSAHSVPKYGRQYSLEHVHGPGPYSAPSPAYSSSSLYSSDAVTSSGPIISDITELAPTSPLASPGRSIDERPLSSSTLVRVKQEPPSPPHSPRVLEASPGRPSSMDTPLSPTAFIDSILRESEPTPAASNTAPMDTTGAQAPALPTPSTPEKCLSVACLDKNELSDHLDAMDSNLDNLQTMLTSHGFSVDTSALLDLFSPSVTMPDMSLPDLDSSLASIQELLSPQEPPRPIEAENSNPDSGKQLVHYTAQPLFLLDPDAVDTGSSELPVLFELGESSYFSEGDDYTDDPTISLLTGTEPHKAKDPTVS

HEK293 [3] = experiment: cells; type: functional, cell-based; conditions: Homo sapiens
HEK293 [4] = experiment: cells; type: functional, cell-based; conditions: Homo sapiens; remark: listed apart in the source
HEK293 [5] = experiment: NOD1 signaling inhibitors, primary screen, cell-based, luminescence, uHTS (AID 1578); type: functional; conditions: Homo sapiens
HEK293 [6] = experiment: NOD2 signaling inhibitors in MDP-stimulated cells, cell-based, uHTS, luminescence (AID 2001); type: functional; conditions: Homo sapiens
[7] = molecular target: Nucleotide-binding oligomerization domain-containing protein 2 (Homo sapiens, UniProt Q9HC29); experiment: NOD2 signaling inhibitors, cell-based, luminescence, uHTS, HEK293 (AID 1566); type: functional
HEK293 [8] = experiment: cells; type: functional, cell-based; conditions: Homo sapiens; remark: listed apart in the source
[9] = molecular target: DNA dC->dU-editing enzyme APOBEC-3A (Homo sapiens, UniProt P31941); experiment: Dose Response confirmation of small molecule APOBEC3A DNA Deaminase Inhibitors via a fluorescence-based single-stranded DNA deaminase assay. [Related pubchem assays (depositor defined):AID493011, AID493024]; type: functional
Caspase-6 = molecular target: T3, Caspase-6 (Homo sapiens, UniProt P55212); experiment: human caspase-6 inhibitors, dose response, biochemical, VEID-R110 fluorescence, cherry-pick (AID 720632)
T3 sequence (P55212 whole entry): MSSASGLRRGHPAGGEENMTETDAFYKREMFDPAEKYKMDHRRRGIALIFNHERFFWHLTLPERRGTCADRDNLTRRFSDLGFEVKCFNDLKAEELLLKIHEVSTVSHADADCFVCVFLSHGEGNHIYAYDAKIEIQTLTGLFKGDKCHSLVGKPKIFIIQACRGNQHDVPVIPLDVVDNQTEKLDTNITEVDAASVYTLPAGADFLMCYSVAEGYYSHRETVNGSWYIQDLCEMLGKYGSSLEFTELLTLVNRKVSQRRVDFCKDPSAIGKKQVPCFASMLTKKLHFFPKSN

[10] = molecular target: T4, Long-chain-fatty-acid--AMP ligase FadD28 (Mycobacterium tuberculosis, UniProt P9WQ59); experiment: Fluorescence polarization aasay to screen for inhibitors that compete for the binding of FadD28 to a bisubstrate Measured in Biochemical System Using Plate Reader - 2147-01_Inhibitor_Dose_CherryPick_Activity.; type: functional, Mycobacterium tuberculosis H37Rv
T4 sequence (P9WQ59 whole entry): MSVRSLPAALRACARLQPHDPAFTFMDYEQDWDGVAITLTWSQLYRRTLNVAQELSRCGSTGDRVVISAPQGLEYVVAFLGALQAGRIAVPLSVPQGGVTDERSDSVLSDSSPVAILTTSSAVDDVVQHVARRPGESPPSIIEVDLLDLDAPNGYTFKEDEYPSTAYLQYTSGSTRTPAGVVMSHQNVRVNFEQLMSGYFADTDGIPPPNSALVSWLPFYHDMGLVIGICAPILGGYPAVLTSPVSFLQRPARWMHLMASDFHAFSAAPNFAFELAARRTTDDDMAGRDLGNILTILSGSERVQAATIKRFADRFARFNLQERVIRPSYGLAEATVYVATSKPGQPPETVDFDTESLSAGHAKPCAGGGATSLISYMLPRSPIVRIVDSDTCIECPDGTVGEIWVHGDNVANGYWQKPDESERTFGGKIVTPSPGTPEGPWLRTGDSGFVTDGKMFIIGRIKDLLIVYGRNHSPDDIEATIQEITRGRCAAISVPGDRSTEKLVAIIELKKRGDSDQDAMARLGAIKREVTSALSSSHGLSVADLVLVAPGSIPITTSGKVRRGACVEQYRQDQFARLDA

Genome polyprotein = Genome polyprotein (dengue virus type 2, UniProt P29990); experiment: Dengue-2 NS5 methyltransferase inhibitors, primary screen, biochemical, confirmation dose response (AID 588689); type: functional
[11] = molecular target: DNA dC->dU-editing enzyme APOBEC-3G (Homo sapiens, UniProt Q9HC16); type: functional;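 note: Dose-response counterscreen measuring inhibition of APOBEC3G DNA deaminase activity, run while confirming APOBEC3A inhibitors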
Streptococcus = experiment: Group A Streptococcus viability loss, dose response, counter-screen for streptokinase expression inhibitor project, luminescence, BacTiterGlo (AID 1915); type: functional, organism-based;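 note: potency for reduction of bacterial viability or growth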
[12] = tested on: Streptococcus sp. 'group A'; experiment: growth inhibition of control SK(-) GAS strain, dose response, counter-screen for streptokinase expression inhibitor project, luminescence, kanamycin, BacTiterGlo, confirmation (AID 1900); type: functional, organism-based
cells = type: functional
Vero [13] = experiment: cells; type: functional; conditions: Chlorocebus sabaeus
Vero [14] = experiment: cells; type: functional, cell-based; conditions: Chlorocebus sabaeus
[15] = THP-1 cell cytotoxicity, dose response, cytotoxicity control for non-replicating M. tuberculosis project (AID 489025); type: functional
[16] = Vero E6 cell cytotoxicity, dose response, cytotoxicity control for non-replicating M. tuberculosis project, secondary assay (AID 492998); type: functional, VeroE6; conditions: Vero C1008

CCN1CCN(c2ccc(S(=O)(=O)N3CCCCC3)cc2NC(=O)C(C)Oc2ccc(F)cc2)CC1 (centres undefined)
EC50 [1]: 10.6 µM (active)

CC(COC(=O)c1ccccc1)(COC(=O)c1ccccc1)/[N+]([O-])=C/c1ccccc1
EC50 (Troponin, cardiac muscle): > 71.5 µM (inactive)

CCN1C(=O)/C(=C/N2CCc3ccccc32)SC1=S
EC50 (H4): 4.21 µM (active) | EC50 (Troponin, cardiac muscle): 5.4 µM (active)

O=C(Nc1ccncc1)c1c(F)cccc1F
EC50 [2]: 24.1 µM (active) | IC50 (HEK293 [3]): > 20 µM (inactive) | IC50 (HEK293 [4]): 3.91 µM (active) | EC50 (HEK293 [5]): 9.17 µM (active) | IC50 (HEK293 [6]): 4.33 µM (active) | EC50 [7]: 4.55 µM (active) | IC50 (HEK293 [8]): > 20 µM (inactive)

COc1ccc(-c2cc(C(=O)NCC(c3ccccc3)N(C)C)c3ccccc3n2)cc1OC (centres undefined)
EC50 [1]: 10.6 µM (active)

O=C(CCSc1ccccc1)N1CCN(C(=O)c2ccco2)CC1
EC50 (Troponin, cardiac muscle): > 71.5 µM (inactive)

C=CCOc1ccc(C(c2c(C(=O)O)[nH]c3ccccc23)c2c(C(=O)O)[nH]c3ccccc23)cc1
IC50 [9]: 21.5 µM (active) | AC50 (Caspase-6): 14.2 µM (active) | AC50 [10]: 12 µM (active) | IC50 (Genome polyprotein): 22 µM (active) | IC50 [11]: 28.8 µM (active)

COc1ccc(Cl)cc1/C=C/c1ccc2cccc(O)c2n1
EC50 (Streptococcus): 3.58 µM (active) | IC50 (HEK293 [3]): > 20 µM (inactive) | IC50 (HEK293 [4]): 14 µM (active) | EC50 [12]: 0.786 µM (active) | EC50 (HEK293 [5]): 5.5 µM (active) | IC50 (HEK293 [6]): 4.73 µM (inactive) | EC50 [7]: > 20 µM (inactive) | IC50 (HEK293 [8]): > 20 µM (inactive)

c1ccc(Nc2nc(Nc3ccccc3)nc(N3CCNCC3)n2)cc1
IC50 (cells): 26.5 µM (active) | CC50 (Vero [13]): 22.6 µM (active) | IC50 (Vero [14]): > 25 µM (active) | CC50 [15]: 23 µM (active) | EC50 [1]: 3.35 µM (active) | CC50 [16]: > 20 µM (active)

Cc1ccc(CNC(=O)CCNC(=O)c2ccc([N+](=O)[O-])cc2)cc1
IC50 [9]: 6.67 µM (active) | IC50 [11]: 10.9 µM (active)
